Patent US20120244567A1, “HUMAN EMBRYONIC STEM CELLS FOR HIGH THROUGHOUT DRUG SCREENING” (BUCK INSTITUTE FOR RESEARCH ON AGING, priority 2009, published 2012)
Where a name gives a salt, the structure may show the parent alone. Read-outs that look alike come from different tables or passages of the source.

System: NSCs
Description: RNAs isolated from NSCs and neurons with and without drug treatments were hybridized to Illumina HumanRef-8 BeadChip (Illumina, Inc., San Diego, Calif., performed by Microarray core facility at the Burnham Institute for Medical Research). The Illumina array data were normalized by the quantile method, and then transformed log 2 ratio values for a zero mean for expression values of each gene across all samples. The statistical and bioinformatics analyses were conducted by using R and the bioconductor package (www.bioconductor.org). The gene set enrichment analysis was conducted using the GSEA software (www.broad.mit.edu/gsea).

[1] = Amiloride sensitive Na channels, 4 hours of exposure
[2] = Amine transporters, 4 hours of exposure
[3] = Ca activated K channels, 4 hours of exposure
[4] = Calcium channels, 4 hours of exposure
[5] = Cl channels, 4 hours of exposure
[6] = Delayed rectifier K channels, 4 hours of exposure
[7] = H ion transporters, 4 hours of exposure
[8] = Rectifier K channels, 4 hours of exposure
[9] = Voltage gated Na channels, 4 hours of exposure

For `CCCCc1oc2ccccc2c1C(=O)c1cc(I)c(OCCN(CC)CC)c(I)c1` [Amiodarone Hydrochloride], the “ERG expression, Treated NSC” value was 32.9, the “ACCN1 gene expression, Treated NSC” value [1] was 16.5 and the “ACCN2 gene expression, Treated NSC” value [1] was 185.7. The “ACCN3 gene expression, Treated NSC” value [1] was 11, the “SLC1A2 gene expression, Treated NSC” value [2] was 15.7 and the “SLC1A3 gene expression, Treated NSC” value [2] was 552.1. The “SLC6A3 gene expression, Treated NSC” value [2] was 21.2, the “SLC6A9 gene expression, Treated NSC” value [2] was 329.2 and the “SLC6A12 gene expression, Treated NSC” value [2] was 9.6. The “KCNMB1 gene expression, Treated NSC” value [3] was 62.9, the “KCNN1 gene expression, Treated NSC” value [3] was 6.5 and the “KCNN2 gene expression, Treated NSC” value [3] was 15.8. For the same compound, the “KCNN3 gene expression, Treated NSC” value [3] was 0.7, the “CACNA1A gene expression, Treated NSC” value [4] was 2 and the “CACNA1C gene expression, Treated NSC” value [4] was 25.9. The “CACNB2 gene expression, Treated NSC” value [4] was 7.8, the “CACNG2 gene expression, Treated NSC” value [4] was 2.5 and the “CLCN2 gene expression, Treated NSC” value [5] was 41.6. For the same compound, the “CLCN3 gene expression, Treated NSC” value [5] was 566.5, the “CLCN6 gene expression, Treated NSC” value [5] was 349.8 and the “CLCN7 gene expression, Treated NSC” value [5] was 1305.5. The “CLIC1 gene expression, Treated NSC” value [5] was 122.2, the “KCNA5 gene expression, Treated NSC” value [6] was 24.2 and the “KCNB1 gene expression, Treated NSC” value [6] was 32.8. The “KCNB2 gene expression, Treated NSC” value [6] was 25, the “ATP5B gene expression, Treated NSC” value [7] was 7030.3 and the “ATP6V0A2 gene expression, Treated NSC” value [7] was 190.2. The “ATP6V0D1 gene expression, Treated NSC” value [7] was 3355, the “ATP6V1A gene expression, Treated NSC” value [7] was 1155.9 and the “ATP6V1B2 gene expression, Treated NSC” value [7] was 385.4. For the same compound, the “SLC2A1 gene expression, Treated NSC” value [7] was 1274.8, the “SLC2A11 gene expression, Treated NSC” value [7] was 22.8 and the “SLC35B1 gene expression, Treated NSC” value [7] was 1769.8. The “expression of Fos, FosB and DDIT3” value (NSCs, four hours after exposure) was “significantly up regulated”, the “KCNC4 gene expression, Treated NSC” value [8] was 4.5 and the “KCND2 gene expression, Treated NSC” value [8] was 2.3. For the same compound, the “KCNF1 gene expression, Treated NSC” value [8] was 189.2, the “KCNG1 gene expression, Treated NSC” value [8] was 150.4 and the “KCNJ4 gene expression, Treated NSC” value [8] was 15.9. The “KCNJ6 gene expression, Treated NSC” value [8] was 317.3, the “KCNJ11 gene expression, Treated NSC” value [8] was 13.5 and the “KCNQ3 gene expression, Treated NSC” value [8] was 3.4. The “KCNQ2 gene expression, Treated NSC” value (Rectifier K channels, first line for this gene, 4 hours of exposure) was 138.1, the “KCNQ2 gene expression, Treated NSC” value (Rectifier K channels, second line for this gene, 4 hours of exposure) was 919.6 and the “SCN1A gene expression, Treated NSC” value [9] was 20.5. The “SCN3A gene expression, Treated NSC” value [9] was 5.7, the “SCN9A gene expression, Treated NSC” value [9] was 1.9 and the “expression of KLF 10 (intrinsic mitochondrial apoptotic pathway)” value (differentiated cells, treated versus untreated cells) was “not altered”. For the same compound, the “AFF1 expression, Treated NSC” value (four hours after exposure) was 50.8, the “ARID3A expression, Treated NSC” value (four hours after exposure) was 2200 and the “ASCL2 expression, Treated NSC” value (four hours after exposure) was 36. For the same compound, the “CREBL1 expression, Treated NSC” value (four hours after exposure) was 32.2, the “DDIT3 expression, Treated NSC” value (four hours after exposure) was 2270 and the “DLX1 expression, Treated NSC” value (four hours after exposure) was 1550. The “DLX2 expression, Treated NSC” value (four hours after exposure) was 54.3, the “E2F2 expression, Treated NSC” value (four hours after exposure) was 635 and the “E2F7 expression, Treated NSC” value (four hours after exposure) was 711. The “E2F8 expression, Treated NSC” value (four hours after exposure) was 82.7, the “EGR1 expression, Treated NSC” value (four hours after exposure) was 3100 and the “EGR2 expression, Treated NSC” value (four hours after exposure) was 155. The “ELF4 expression, Treated NSC” value (four hours after exposure) was 103, the “ELF5 expression, Treated NSC” value (four hours after exposure) was 30.8 and the “ELK3 expression, Treated NSC” value (four hours after exposure) was 89.9. For the same compound, the “ELK4 expression, Treated NSC” value (four hours after exposure) was 39.3, the “EN1 expression, Treated NSC” value (four hours after exposure) was 48.7 and the “ETS1 expression, Treated NSC” value (four hours after exposure) was 952. For the same compound, the “ETV1 expression, Treated NSC” value (four hours after exposure) was 34.4, the “ETV4 expression, Treated NSC” value (four hours after exposure) was 672 and the “FOS expression, Treated NSC” value (four hours after exposure) was 1160. The “FOSB expression, Treated NSC” value (four hours after exposure) was 174, the “FOXA2 expression, Treated NSC” value (four hours after exposure) was 36.8 and the “FOXD1 expression, Treated NSC” value (four hours after exposure) was 79.7. For the same compound, the “FOXF2 expression, Treated NSC” value (four hours after exposure) was 39.3, the “FOXL2 expression, Treated NSC” value (four hours after exposure) was 120 and the “FOXM1 expression, Treated NSC” value (four hours after exposure) was 287. For the same compound, the “GATA2 expression, Treated NSC” value (four hours after exposure) was 46.2, the “GLI2 expression, Treated NSC” value (four hours after exposure) was 227 and the “HCLS1 expression, Treated NSC” value (four hours after exposure) was 40. For the same compound, the “HEY2 expression, Treated NSC” value (four hours after exposure) was 37.9, the “HIRA expression, Treated NSC” value (four hours after exposure) was 31.5 and the “HMGB2 expression, Treated NSC” value (four hours after exposure) was 2170. The “HOXA2 expression, Treated NSC” value (four hours after exposure) was 770, the “HOXA13 expression, Treated NSC” value (four hours after exposure) was 33.2 and the “HOXB1 expression, Treated NSC” value (four hours after exposure) was 30.6. The “HOXB2 expression, Treated NSC” value (four hours after exposure) was 1100, the “HOXB3 expression, Treated NSC” value (four hours after exposure) was 186 and the “HOXB4 expression, Treated NSC” value (four hours after exposure) was 198. The “HOXB5 expression, Treated NSC” value (four hours after exposure) was 49.9, the “HOXD3 expression, Treated NSC” value (four hours after exposure) was 70.2 and the “IRF1 expression, Treated NSC” value (four hours after exposure) was 38.9. For the same compound, the “KLF10 expression, Treated NSC” value (four hours after exposure) was 38.1, the “L3MBTL expression, Treated NSC” value (four hours after exposure) was 27.5 and the “LHX8 expression, Treated NSC” value (four hours after exposure) was 42.9. For the same compound, the “MEF2C expression, Treated NSC” value (four hours after exposure) was 33.1, the “MEOX1 expression, Treated NSC” value (four hours after exposure) was 178 and the “MSX2 expression, Treated NSC” value (four hours after exposure) was 41.9. The “MYEF2 expression, Treated NSC” value (four hours after exposure) was 30.6, the “NFATC3 expression, Treated NSC” value (four hours after exposure) was 32.4 and the “NFATC4 expression, Treated NSC” value (four hours after exposure) was 32.8. The “NFKB2 expression, Treated NSC” value (four hours after exposure) was 68, the “NR1D2 expression, Treated NSC” value (four hours after exposure) was 44.9 and the “NR2C2 expression, Treated NSC” value (four hours after exposure) was 65.3. The “NR4A2 expression, Treated NSC” value (four hours after exposure) was 30.4, the “NRK expression, Treated NSC” value (four hours after exposure) was 43.8 and the “PAX8 expression, Treated NSC” value (four hours after exposure) was 98.9. The “PBX2 expression, Treated NSC” value (four hours after exposure) was 70.8, the “PRDM1 expression, Treated NSC” value (four hours after exposure) was 94.7 and the “PRRX2 expression, Treated NSC” value (four hours after exposure) was 67.5. The “RELB expression, Treated NSC” value (four hours after exposure) was 53.6, the “RUNX1 expression, Treated NSC” value (four hours after exposure) was 43.3 and the “SALL1 expression, Treated NSC” value (four hours after exposure) was 80.9. For the same compound, the “SIX4 expression, Treated NSC” value (four hours after exposure) was 185, the “STAT6 expression, Treated NSC” value (four hours after exposure) was 55.8 and the “TAF5L expression, Treated NSC” value (four hours after exposure) was 77.4. For the same compound, the “TAF13 expression, Treated NSC” value (four hours after exposure) was 35.2, the “TBX2 expression, Treated NSC” value (four hours after exposure) was 46.9 and the “TEAD3 expression, Treated NSC” value (four hours after exposure) was 87. For the same compound, the “TEAD4 expression, Treated NSC” value (four hours after exposure) was 235, the “TEF expression, Treated NSC” value (four hours after exposure) was 32.4 and the “TGIF1 expression, Treated NSC” value (four hours after exposure) was 117. The “TP53 expression, Treated NSC” value (four hours after exposure) was 267, the “ZNF85 expression, Treated NSC” value (four hours after exposure) was 93.8 and the “ZNF197 expression, Treated NSC” value (four hours after exposure) was 32.8. The “ZNF274 expression, Treated NSC” value (four hours after exposure) was 37.8, the “ZNF367 expression, Treated NSC” value (four hours after exposure) was 30.9 and the “ZSCAN29 expression, Treated NSC” value (four hours after exposure) was 47.6.
